Results taken from patent US10519099B2, “Cystobactamides” (priority 2014, dated 2019).

Molecular target: T1, P. aeruginosa gyrase (Pseudomonas aeruginosa, UniProt P48372+Q9I7C2)
T1 construct: purchased Inspiralis, Norwich, UK
Assay: P. aeruginosa gyrase DNA supercoiling assay
Format: biochemical
Conditions: read-out: IC50 Pa gyrase (sc)
Description: To test the anti-gyrase activity of cystobactamides, commercial E. coli and P. aeruginosa gyrase supercoiling kits (Inspiralis, Norwich, UK) were used. For standard reactions 0.5 μg relaxed plasmid were mixed with 1 unit gyrase in 1× reaction buffer (see kit manual) and incubated for 30 min at 37° C. The reactions were quenched by the addition of DNA gel loading buffer containing 10% (w/v) SDS. The samples were separated on 1% (w/v) agarose gels and DNA was visualized using EtBr. All natural products stock solutions and dilutions were prepared in 100% DMSO and added to the supercoiling reactions giving a final DMSO concentration of 2% (v/v).

T1 sequence (Q9I7C2 whole entry): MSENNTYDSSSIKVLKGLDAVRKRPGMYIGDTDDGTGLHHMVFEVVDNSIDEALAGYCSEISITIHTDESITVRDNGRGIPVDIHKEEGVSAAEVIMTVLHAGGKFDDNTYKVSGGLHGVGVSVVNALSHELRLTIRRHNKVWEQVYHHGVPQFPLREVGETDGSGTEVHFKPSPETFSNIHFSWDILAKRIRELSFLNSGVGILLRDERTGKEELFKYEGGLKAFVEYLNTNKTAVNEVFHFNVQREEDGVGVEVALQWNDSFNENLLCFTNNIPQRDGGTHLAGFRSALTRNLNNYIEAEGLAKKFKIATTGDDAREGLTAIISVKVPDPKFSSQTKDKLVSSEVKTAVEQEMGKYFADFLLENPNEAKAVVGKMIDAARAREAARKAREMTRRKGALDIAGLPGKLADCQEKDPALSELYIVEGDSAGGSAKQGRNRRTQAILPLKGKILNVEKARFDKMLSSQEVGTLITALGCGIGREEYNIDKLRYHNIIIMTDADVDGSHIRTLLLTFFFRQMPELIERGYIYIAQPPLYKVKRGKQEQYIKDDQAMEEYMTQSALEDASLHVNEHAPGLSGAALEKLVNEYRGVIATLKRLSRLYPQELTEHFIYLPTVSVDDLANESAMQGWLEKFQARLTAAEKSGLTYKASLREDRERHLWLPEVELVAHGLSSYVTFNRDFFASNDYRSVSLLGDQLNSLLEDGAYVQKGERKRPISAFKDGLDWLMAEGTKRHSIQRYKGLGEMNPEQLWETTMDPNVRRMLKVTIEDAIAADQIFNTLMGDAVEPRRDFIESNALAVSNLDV
T1 sequence (P48372 whole entry): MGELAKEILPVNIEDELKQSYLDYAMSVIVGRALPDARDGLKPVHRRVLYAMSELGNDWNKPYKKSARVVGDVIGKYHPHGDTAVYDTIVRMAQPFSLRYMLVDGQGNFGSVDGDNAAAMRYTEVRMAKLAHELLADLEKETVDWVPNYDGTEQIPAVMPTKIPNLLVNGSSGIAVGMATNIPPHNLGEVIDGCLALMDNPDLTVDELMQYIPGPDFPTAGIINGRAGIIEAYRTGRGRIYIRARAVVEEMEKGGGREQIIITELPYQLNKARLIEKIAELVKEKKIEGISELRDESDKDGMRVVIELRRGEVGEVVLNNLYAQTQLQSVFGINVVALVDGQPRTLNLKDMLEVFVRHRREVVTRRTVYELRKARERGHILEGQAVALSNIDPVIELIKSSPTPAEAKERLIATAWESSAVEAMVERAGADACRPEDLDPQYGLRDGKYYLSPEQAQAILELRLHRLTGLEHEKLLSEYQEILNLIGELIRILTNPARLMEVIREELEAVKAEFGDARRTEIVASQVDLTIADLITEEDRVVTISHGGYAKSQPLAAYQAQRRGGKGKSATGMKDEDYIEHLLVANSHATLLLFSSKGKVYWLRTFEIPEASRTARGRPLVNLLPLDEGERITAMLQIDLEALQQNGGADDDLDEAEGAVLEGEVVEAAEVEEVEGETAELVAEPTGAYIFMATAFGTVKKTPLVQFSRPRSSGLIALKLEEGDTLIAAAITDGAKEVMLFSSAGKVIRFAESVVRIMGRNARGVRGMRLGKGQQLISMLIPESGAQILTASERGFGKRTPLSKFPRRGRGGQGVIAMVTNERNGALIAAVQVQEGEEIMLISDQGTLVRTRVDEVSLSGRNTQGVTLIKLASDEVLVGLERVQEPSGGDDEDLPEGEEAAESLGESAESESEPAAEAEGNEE

With `COC(C(N)=O)C(NC(=O)c1ccc(NC(=O)c2ccc([N+](=O)[O-])cc2)cc1)C(=O)Nc1ccc(C(=O)Nc2ccc(C(=O)Nc3ccc(C(=O)O)cc3OC(C)C)c(O)c2OC(C)C)cc1` (stereo not shown) [Cys 919-2] as the compound, how does the IC50 read?
The IC50 was 340 nM.
